Data published in patent publication EP0638309A1, “Substances inhibiting proteic adp ribosilation suitable to prevent the diabetes mellitus complications” (ISTITUTO BIOCHIMICO ITALIANO GIOVANNI LORENZINI S.p.A., priority 1993, dated 1995).

Key:
[1] = tested on: 5 YSY neuroblastoma; experiment: Myoinositol metabolism (accumulation and incorporation) in neuroblastoma cells cultured in glucose; assay type: cell-based; conditions: glucose 30 mM, substance 10⁻⁵ M; for Myoinositol Incorporation: fraction linked to the membranes
Protocol: A diabetic neuropathy in vitro model has been carried out using neuroblastoma cells cultured in chronic hyperglucosemia conditions. This condition causes the typical diabetes mellitus dismetabolic effects as the polyols (sorbitol) accumulation, the myoinositol reduction and the reduction of the Na pump functionality. […] et al. - Alan R., Liss. […] In the groups from 2) to 4) glucose (30 mM) has been added to the culture renewing the culture medium and then adding glucose every 72 hours, during a three weeks period. In the group 3), at the same time of the glucose, one of the substances inhibiting proteic ADP-ribosilation reported in the table 1 (amount 10^-5 M) has been added. In the group 4), at the same time of the glucose one of the substances non inhibiting proteic ADP-ribosilation reported in the table 1 (dermatan sulphate and tolrestat) in amount 10^-5 M has been added. On the experimental groups above described also the myoinositol metabolism alteration has been studied which has been valued by the method described by Yorek et al., in "Diabetes", pag. […]

[2] = tested on: transducin; experiment: In vitro ADP-ribosilation of retina membrane proteins G from treated diabetic rats (autoradiogram); assay type: in vivo; conditions: retina membrane fraction of diabetic rats treated at 50 mg/kg
Text: A further experimentation on the silybin effect on the ADP-ribosilation of retina proteins G has been carried out. The evaluation of said proteins ribosilability has been performed by the method described by Duman et al. in J. Neurochem. (1991). pages 2124-2132.
For said experimentation the retinas withdrawn from the rats of the groups 1a), 2a) and 3a) used for the experimentation on the substance P axonal transport, were used.
The retinas have been homogenized and subdivided in cellular fractions and the membrane fraction has been selected for the ADP-ribosilation reaction in vitro.
2 which represents the autoradiogram of an electrophoretic gel obtained from said membrane cellular fraction.
Column 1P derives from the retinas of the control group rats, column 2P derives from the retinas of the diabetic rats and column 3P derives from the retinas of the diabetic rats treated with silybin at a 50 mg/kg dose.

[3] = tested on: substance P axonal transport; experiment: Substance P axonal transport in ligated sciatic nerve of alloxan-diabetic rats; assay type: in vivo; conditions: for substance P content, NSc: contralateral non-ligated sciatic nerve; for substance P content, NSc / substance P content, D / substance P content, P2 / substance P content, P1: ± ES; for substance P content, D: distal segment; for substance P content, P1: proximal segment contiguous to ligature; for anterograde and retrograde accumulation of substance P, in words: 10 mg/kg daily
Text: The effectiveness verification of the substances inhibiting proteic ADP-ribosilation in preventing the diabetes mellitus complications has been carried out in vivo on rats in diabetes mellitus models induced by alloxan. With this purpose, […] substance P axonal transport in the five following experimental groups, each consisting of N° 8 rats: • 1) control group; • 2) diabetic rats group; • 3) diabetic rats group treated with vitamin K1 (substance inhibiting the proteic ADP-ribosilation); • 4) diabetic rats group treated with arachidic acid (substance inhibiting the proteic ADP-ribosilation); • 5) diabetic rats group treated with dermatan sulphate (substance non inhibiting proteic ADP-ribosilation).
The Sprague Dawley strain rats used, 250 gr weight, male sex, were supplied by Charles River.
(§1) The diabetes has been induced in the rats of the groups from 2) to 5) by a single subcutaneous injection of 100 mg/kg of alloxan dissolved in pH 4.5 0.1 M citrate-phosphate buffer solution.
The pharmacological treatment of the groups 3) and 5) respectivelly with vitamin K1 and dermatansulphate, has been carried out by intraperitoneal administration of said substances dissolved in physiologic solution at 10 mg/kg dose. […] Groups 1) and 2) have been injected with an equivalent volume of physiologic solution.
(§2) The pharmacological treatment started 7 days after the diabetes induction and prosecuted until the sacrifice with daily administration.
To estimate the axonal transport of substance P the accumulation of the substance P in three segments of sciatic nerve two millimeters long was estimated 24 hours from the ligature of the same nerve.
The operations of the sciatic nerve ligature, of the tissues withdrawal from the same and of substance P extraction from the tissues for the radioimmunologic dosage, have been carried out by the following way.
The animals were anaesthetised by intraperitoneal administration of 35 mg/kg of pentobarbital dissolved in 0.9% physiologic solution. After wright thigh epilation and cutis section the sciatic nerve was exposed at half thigh level (at least 0.8 cm from the popliteal cavity where the nerve ramifies). The ligature has been made by sterile silk thread which has been twice knotted to about half of the exposed nerve portion.
The sacrifice has been accomplished after 8 weeks from the diabetes induction, after 24 hours from the ligature.
Immediately after the sacrifice, in the former operation seat, the removal of the whole sciatic nerve has been made and finally from this the three segments each about 2 mm long have been withdrawn: segment P1 (proximal contiguous to the ligature); segment P2 (immediately above P1) and segment D (distal contiguous to the ligature), as it is shown in fig. 1.
The withdrawn tissues have been placed in polypropylene test-tubes held in ice and containing a volume of acetic acid 1 N in 10:1 ratio with the tissue weight. Then the tissues homogenization has been done by a continuous speed variation homogenizer (Heavy Stirrer, mod. 12) and a polytetrafluoroethylene pestle perfectly adherent to the test-tube walls. After the homogenate aliquots required for the tissue proteins dosage have been withdrawn (0.1 ml) the test-tubes have been immerged in a boiling water bath for 8-10 minutes, for inactivating the peptidases eventually still present in the samples, and then left for about 30 minutes at 4 °C for completely cooling.
The […] obtained by centrifugation of the homogenate at 40.000 x g for 10 minutes, has been lyophilized and the dry residue has been reconstituted in distilled water, stirred by vortex and centrifuged at 40.000 x g for 10 minutes. From the samples so reconstituted the suitable aliquots required for the substance P radioimmunological dosage have been withdrawn. […]

[4] = Body weight and glycemia control in alloxan-diabetic rats; assay type: in vivo; conditions: diabetic animals 8 weeks after the diabetes induction, 10 mg/kg daily; for Glycemia: caudal vein blood before sacrifice
Protocol: The effectiveness verification of the substances inhibiting proteic ADP-ribosilation in preventing the diabetes mellitus complications has been carried out in vivo on rats in diabetes mellitus models induced by alloxan.
as §1
Groups 1) and 2) have been injected with an equivalent volume of physiologic solution.
as §2
The blood samples have been withdrawn at the caudal vein level before the animals sacrifice.

[5] = tested on: 5 YSY neuroblastoma; experiment: Neuritogenesis after retinoic acid in neuroblastoma cells cultured in chronic hyperglucosemia (in vitro diabetic neuropathy model); assay type: cell-based; conditions: substance 10⁻⁵ M; for Percentage of cells with neurits after retinoic acid addition: glucose 30 mM for three weeks
Protocol: A diabetic neuropathy in vitro model has been carried out using neuroblastoma cells cultured in chronic hyperglucosemia conditions. This condition causes the typical diabetes mellitus dismetabolic effects as the polyols (sorbitol) accumulation, the myoinositol reduction and the reduction of the Na pump functionality. […] A. Shahar et al. - Alan R., Liss.
In the groups from 2) to 4) glucose (30 mM) has been added to the culture renewing the culture medium and then adding glucose every 72 hours, during a three weeks period.
In the group 3), at the same time of the glucose, one of the substances inhibiting proteic ADP-ribosilation reported in the table 1 (amount 10⁻⁵ M) has been added.
In the group 4), at the same time of the glucose one of the substances non inhibiting proteic ADP-ribosilation reported in the table 1 (dermatan sulphate and tolrestat) in amount 10⁻⁵ M has been added.
Subsequently retinoic acid (5 x 10⁻⁶ M) has been added to the cultures 1) to 4) for causing the cells neuritogenesis which has been valued by the observation at the optic microscope considering as neurit the cytoplasmatic extension having a length corresponding at least to twice as the diameter of the cell.

[6] = second experiment, oral 50 mg/kg/die
[7] = 10 mg/kg daily (vitamin K1, dermatansulphate intraperitoneal; arachidic acid oral), 8 weeks after induction
[8] = 24 hours after ligature, 10 mg/kg daily (vitamin K1, dermatansulphate intraperitoneal; arachidic acid oral)
[9] = proximal segment above P1, 24 hours after ligature, 10 mg/kg daily (vitamin K1, dermatansulphate intraperitoneal; arachidic acid oral)

| Compound | Myoinositol Incorporation [1] | Myoinositol Accumulation [1] | further results |
| --- | --- | --- | --- |
| O=c1[nH]c2ccc([N+](=O)[O-])cc2c2ccccc12 [2-nitro-(6(5H)-phenanthridinone, 2-nitro-6(5H)-phenanthridinone] | 0.81 n mol/µg of protein | 8.51 n mol/µg of protein |  |
| CCCCCCCCCCCCCCCC(=O)O [palmitic acid] | 0.89 n mol/µg of protein | 9.39 n mol/µg of protein |  |
| COc1cc(C2Oc3cc([C@H]4Oc5cc(O)cc(O)c5C(=O)[C@@H]4O)ccc3OC2CO)ccc1O (stereo partly drawn) [silybin] |  |  | transducin ribosilability, in words [2]: maintained; substance P content, NSc [3, 6]: 2.26±0.040 ng/mg of tissular protein; substance P content, D [3, 6]: 4.05±0.071 ng/mg of tissular protein; substance P content, P2 ([3]; second experiment, proximal segment above P1, oral 50 mg/kg/die): 7.07±0.59 ng/mg of tissular protein; substance P content, P1 [3, 6]: 11.42±0.18 ng/mg of tissular protein |
| CC1=CC(=O)c2ccccc2C1=O [Vit K3, vitamin K3] | 0.85 n mol/µg of protein | 8.56 n mol/µg of protein |  |
| CC(=CCC1=C(C)C(=O)c2ccccc2C1=O)CCCC(C)CCCC(C)CCCC(C)C (stereo not drawn) [Vit K1, vitamin K1] | 0.98 n mol/µg of protein | 9.66 n mol/µg of protein | Body weight [4]: 244±12.6 gr.; Glycemia [4]: 438 ± 6.4 mg/dL; anterograde and retrograde accumulation of substance P, in words [3]: normalized; substance P content, NSc [3, 7]: 1.28±0.008 ng/mg of tissular protein; substance P content, D [3, 8]: 1.96±0.08 ng/mg of tissular protein; substance P content, P2 [3, 9]: 2.44±0.09 ng/mg of tissular protein; substance P content, P1 [3, 8]: 8.72±0.16 ng/mg of tissular protein |
| CCCCCCCCCCCCCCCCCCCC(=O)O [arachidic acid] | 0.92 n mol/µg of protein | 9.02 n mol/µg of protein | Body weight [4]: 239±12.6 gr.; Glycemia [4]: 471 ± 9.4 mg/dL; anterograde and retrograde accumulation of substance P, in words [3]: normalized; substance P content, NSc [3, 7]: 1.24±0.006 ng/mg of tissular protein; substance P content, D [3, 8]: 1.80±0.06 ng/mg of tissular protein; substance P content, P2 [3, 9]: 1.40±0.05 ng/mg of tissular protein; substance P content, P1 [3, 8]: 9.44±0.14 ng/mg of tissular protein |
| vitamin K2 [Vit K2] | 0.88 n mol/µg of protein | 8.99 n mol/µg of protein | Percentage of cells with neurits after retinoic acid addition ([5]; 3 days in retinoic acid): 45%; Percentage of cells with neurits after retinoic acid addition ([5]; 7 days in retinoic acid): 65%; Percentage of cells with neurits after retinoic acid addition ([5]; 12 days in retinoic acid): 98% |
| CCCCCCCCCCCCCC(=O)O [myristic acid] | 0.85 n mol/µg of protein | 8.91 n mol/µg of protein |  |
| CCCCC/C=C\C/C=C\CCCCCCCC(=O)O [linoleic acid (C18:2-cis-9.12), linoleic acid] | 0.88 n mol/µg of protein | 8.66 n mol/µg of protein |  |
| Nc1ccc2c3c(cccc13)C(=O)NC2=O [4-amino-1.8-naphthalimide] | 0.78 n mol/µg of protein | 8.01 n mol/µg of protein |  |
| COc1ccc2c(C(=S)N(C)CC(=O)O)cccc2c1C(F)(F)F [tolrestat] |  |  | prevention of the diabetic neuropathy (neuritogenesis), in words ([5]; glucose 30 mM): does not exercise any effect for preventing the diabetic neuropathy |
| CO[C@@H]1[C@@H](OC(N)=O)[C@@H](O)[C@H](Oc2ccc3c(O)c(NC(=O)c4ccc(O)c(CC=C(C)C)c4)c(=O)oc3c2C)OC1(C)C [novobiocin] | 0.60 n mol/µg of protein | 6.0 n mol/µg of protein |  |
| O=C1NC(=O)c2cccc3cccc1c23 [1.8 Naphthalimide, 1.8-naphthalimide] | 0.91 n mol/µg of protein | 9.20 n mol/µg of protein |  |
| CCCCCCCCCCCCCCCCCC(=O)O [stearic acid] | 0.95 n mol/µg of protein | 9.89 n mol/µg of protein |  |
| O=c1cc(-c2ccccc2)oc2ccccc12 [flavone] | 0.67 n mol/µg of protein | 6.54 n mol/µg of protein |  |
| CC/C=C\C/C=C\C/C=C\CCCCCCCC(=O)O [linolenic acid (C18:3-cis-9.12.15), linolenic acid] | 0.81 n mol/µg of protein | 8.44 n mol/µg of protein |  |
